Results from US20230109839A1, “THERAPEUTIC AGENT FOR TAUOPATHIES” (SUMITOMO PHARMA CO., LTD., priority 2020, published 2023).

target: T1, human Nav1.1 (Homo sapiens, UniProt P35498); experiment: Amplification of Nav1.1-derived voltage-gated sodium current (Nav1.1 current), automated patch clamp (Test 1); format: cell-based; settings: Concentration for evaluation 1 μM; HEK293 cell line stably expressing human Nav1.1
T1 construct: host or cells: HEK293
Protocol: Test 1: Evaluation of the Amplification of Nav1.1-Derived Voltage-Gated Sodium Current (Nav1.1 Current) by Using a Cell Line Stably Expressing Human Nav1.1
(1) Preparation of Test Compound Solution
Test compounds were prepared by dissolving in DMSO at 200 times of the concentration at evaluation, and diluting the obtained solution to twice the concentration of evaluation with an extracellular fluid (135 mmol/L NaCl, 4 mmol/L KCl, 1 mmol/L MgCl2, 5 mmol/L CaCl2, 5 mmol/L Glucose, 10 mmol/L HEPES).
(2) Induction and Measurement of Nav1.1 Current
A HEK293 cell line stably expressing human Nav1.1 (cat #CYL3009, Eurofins DiscoverX Products, LLC, Human Embryonic Kidney 293) was purchased, and used in the present test. Nav1.1 current was induced by stimulating Ramp wave voltage. Detection of current which accompanied with the stimulation of voltage was carried out by a patch-clamp voltage-clamp method using HTS automated patch clamp system (SynchroPatch 768PE, Nanion Technologies GmbH, Germany). Only cells with more than 500 pA of voltage-gated sodium channel current were used for the evaluation of the activity of compounds on Nav1.1 current because there was the possibility that currents derived from endogenous voltage-gated sodium channels accounted for large proportion in cells with less than 500 pA of voltage-gated sodium channel current which was induced by stimulating Ramp wave voltage.
(3) Pharmacological Effect on Nav1.1 Current
The effect of test compounds on the amplification of Nav1.1-derived voltage-gated sodium current was evaluated by using a cell line stably expressing human Nav1.1 and HTS automated patch clamp system. In other words, test compounds were added in an extracellular fluid containing 1% DMSO, and evaluated as a change of the peak value of Nav1.1 current and the area under the curve (AUC).
(4) Method for Pharmacological Evaluation
The Nav1.1 current amplification rates of test compounds were calculated by the following formula:
Nav1.1 current amplification rate (%)=100×[the peak value of Nav1.1 current or the area under the curve after the addition of test compounds]/[the peak value of Nav1.1 current or the area under the curve before the addition of test compounds]−100

Row | Compound | Nav1.1 current amplification rate (%)
1 | CN(c1cnc2cnn(CC(=O)Nc3ccc4ncnn4c3)c2n1)C1CC1 [Example 664] | 34%
2 | CC1CC=C(c2ccc(=O)n(CC(=O)Nc3ccc4nccn4n3)n2)CC1 (centres unmarked) [Example 346] | 96%
3 | Cc1cc(NC(=O)Cn2nc(C3=CCC(C)CC3)ccc2=O)cn2ncnc12 (centres unmarked) [Example 349] | 101%
4 | O=C(Cn1nc(-c2cc(Cl)cs2)ccc1=O)Nc1ccn2ccnc2c1 [Example 467] | 80%
5 | Cc1nccn1-c1ccc(NC(=O)Cn2ncc3ncc(N(C)C4CCCC4)nc32)cc1 [Example 681] | 26%
6 | CC1CC=C(c2ccc(=O)n(CC(=O)Nc3cncc(C4=COCCC4)c3)n2)CC1 (centres unmarked) [Example 382] | 13%
7 | COCCNCc1cccc2c1CCN2C(=O)Cn1nc(C2=CCC(C)CC2)ccc1=O (centres unmarked) [Example 314] | 9%
8 | CN(c1cnc2cnn(CC(=O)N3CCc4c(-c5ccnn5C)cccc43)c2n1)C1CCC1 [Example 693] | 13%
9 | CC1CC=C(c2ccc(=O)n(CC(=O)N3CCc4c(Cn5cncn5)cccc43)n2)CC1 (centres unmarked) [Example 294] | 271%
10 | CC1CC=C(c2ccc(=O)n(CC(=O)N3CCc4c3ccc(F)c4-c3ccnnc3)n2)CC1 (centres unmarked) [Example 295] | 95%
11 | CC1CC=C(c2ccc(=O)n(CC(=O)Nc3cnc4c(cnn4C)c3)n2)CC1 (centres unmarked) [Example 348] | 57%
12 | O=C(Cn1ncc2cnc(N3CCC(F)(F)CC3)nc21)Nc1ccn2ncnc2c1 [Example 768] | 18%
13 | CC1CC=C(c2ccc(=O)n(CC(=O)N3CCc4c(CN(C)C5COC5)cccc43)n2)CC1 (centres unmarked) [Example 276] | 207%
14 | CN(c1ncc2cnn(CC(=O)Nc3ccn4ncnc4c3)c2n1)C1CC(C)(C)C1 [Example 632] | 164%
15 | COC1CCN(c2nccc3c2CCN3C(=O)Cn2nc(C3=CCC(C)CC3)ccc2=O)CC1 (centres unmarked) [Example 309] | 71%

same assay, conditions: Concentration for evaluation 3 μM; HEK293 cell line stably expressing human Nav1.1

Row | Compound | Nav1.1 current amplification rate (%)
16 | CC1CC=C(c2ccc(=O)n(CC(=O)N3CCN(c4ccccc4)CC3)n2)CC1 (centres unmarked) [Example 258] | 79%
17 | CC1CC=C(c2ccc(=O)n(CC(=O)N3CCc4c(-c5ccncc5)cccc43)n2)CC1 (centres unmarked) [Example 250] | 564%
18 | CC1CC=C(c2ccc(=O)n(CC(=O)N3CCc4c(C5CN(C6COC6)C5)cccc43)n2)CC1 (centres unmarked) [Example 301] | 410%

same assay, conditions: Concentration for evaluation 10 μM; HEK293 cell line stably expressing human Nav1.1

Row | Compound | Nav1.1 current amplification rate (%)
19 | COc1cc(C2=CCC(C)CC2)nn(CC(=O)N2CCc3c(N4CCOCC4)cccc32)c1=O (centres unmarked) [Example 473] | 487%
20 | N#Cc1ccc(NC(=O)Cn2nc(N3CC4CC4C3)ccc2=O)cc1 (centres unmarked) [Example 18] | 11%
21 | CC1CCN(c2ccc(=O)n(CC(=O)Nc3ccc(C(F)(F)F)nc3)n2)CC1 [Example 59] | 180%
22 | CC1CC=C(c2ccc(=O)n(CC(=O)Nc3ccnc(CN4CCOCC4)c3)n2)CC1 (centres unmarked) [Example 373] | 35%
23 | O=C(Cn1ncc2cnc(N3CCOCC3)nc21)Nc1ccn2ncnc2c1 [Example 767] | 60%
24 | CC1CC=C(c2ccc(=O)n(CC(=O)N3CCN(c4cncc(C(F)(F)F)c4)CC3)n2)CC1 (centres unmarked) [Example 401] | 286%
25 | N#Cc1ccc(NC(=O)Cn2nc(N3CCC4(CCCCC4)C3)ccc2=O)cc1 [Example 31] | 220%
26 | CC1CCN(c2ccc(=O)n(CC(=O)Nc3cncc(C(F)(F)F)c3)n2)CC1 [Example 61] | 77%
27 | Cc1nccn1-c1cccc(NC(=O)Cn2nc(N3CCC(C)CC3)ccc2=O)c1 [Example 75] | 15%
28 | COc1cc(=O)n(CC(=O)N2CCN(c3cncc(F)c3)CC2)nc1C1=CCC(C(F)(F)F)CC1 (centres unmarked) [Example 486] | 148%
29 | CC1CCN(c2ccc(=O)n(CC(=O)Nc3cccc(-c4nccs4)c3)n2)CC1 [Example 80] | 131%
30 | Cc1ccc(-c2ccc(=O)n(CC(=O)N3CCc4cc(N5CCOCC5)ccc43)n2)cc1 [Example 158] | 122%
31 | CC1CC=C(c2ccc(=O)n(CC(=O)Nc3ccc(C4=CCN(C)C4)nc3)n2)CC1 (centres unmarked) [Example 374] | 18%
32 | Cc1cc(=O)n(CC(=O)Nc2ccn3ccnc3c2)nc1C1=CCC(C)(C)CC1 [Example 461] | 337%
33 | C[C@H]1CC[C@H](c2ccc(=O)n(CC(=O)Nc3ccc(C#N)cc3)n2)CC1 [Example 43] | 174%
34 | Cc1c(N2CCC(C)CC2)nn(CC(=O)Nc2ccc(C#N)cc2)c(=O)c1C [Example 35] | 301%
35 | COc1cc(=O)n(CC(=O)Nc2ccn3ccnc3c2)nc1C1=CCC(C)(C)CC1 [Example 459] | 118%
36 | COc1cc(=O)n(CC(=O)N2CCc3c(N4CCOCC4)cccc32)nc1C1=CCC(C)(C)CC1 [Example 470] | 522%
37 | CC12CCC(CN(c3ccc(=O)n(CC(=O)Nc4ccc(C#N)cc4)n3)C1)C2(C)C (centres unmarked) [Example 23] | 28%
38 | CC1CCN(c2ccc(=O)n(CC(=O)Nc3ccc4c(c3)CCNC4=O)n2)CC1 [Example 93] | 65%
39 | CC1CCN(c2ccc(=O)n(CC(=O)Nc3ccc4ncoc4c3)n2)CC1 [Example 73] | 92%
40 | CC1CC=C(c2ccc(=O)n(CC(=O)NC3CN(c4ccccc4)C3)n2)CC1 (centres unmarked) [Example 372] | 52%
41 | CC1CC=C(c2ccc(=O)n(CC(=O)N3CCc4c(N5CCOCC5)cccc43)n2)C1 (centres unmarked) [Example 477] | 398%

same assay, conditions: HEK293, Concentration for evaluation 1 μM; HEK293 cell line stably expressing human Nav1.1; read-out: Nav1.1 current amplification rate (%)

Row | Compound | activation at 1 µM
42 | CN(c1cnc2cnn(CC(=O)Nc3ccc4ncncc4c3)c2n1)C1CC2(CC2)C1 [Example 759] | 57%

same assay, conditions: HEK293, Concentration for evaluation 10 μM; HEK293 cell line stably expressing human Nav1.1; read-out: Nav1.1 current amplification rate (%)

Row | Compound | activation at 10 µM
43 | N#Cc1cc(NC(=O)Cn2nc(N3CCCCC3)ccc2=O)ccn1 [Example 116] | 12%
44 | O=C(Cn1nc(N2CCCCC2)ccc1=O)Nc1ccnc(C(F)(F)F)c1 [Example 113] | 30%

same assay, conditions: HEK293, concentration for evaluation 1 μM; HEK293 stably expressing human Nav1.1; read-out: Nav1.1 current amplification rate (%)

Row | Compound | activation at 1 µM
45 | Cc1cc(NC(=O)Cn2ncc3cnc(N(C)C4CCCC4(F)F)nc32)cc2ncnn12 (centres unmarked) [Example 839] | 143%
46 | CC1CC=C(c2ncc3cnn(CC(=O)Nc4ccn5ccnc5c4)c3n2)CC1 (centres unmarked) [Example 832] | 204%

same assay, conditions: HEK293, concentration for evaluation 10 μM; HEK293 stably expressing human Nav1.1; read-out: Nav1.1 current amplification rate (%)

Row | Compound | activation at 10 µM
47 | CC1CC=C(c2ccc3cnn(CC(=O)N4CCN(c5cccnc5)CC4)c3c2)CC1 (centres unmarked) [Example 893] | 31%

same assay, conditions: concentration for evaluation 1 μM; HEK293 stably expressing human Nav1.1

Row | Compound | Nav1.1 current amplification rate (%)
48 | CN(c1ncc2cnn(CC(=O)Nc3ccn4ncnc4c3)c2n1)C1CCC(F)(F)C1 (centres unmarked) [Example 796] | 66%
49 | CC(C)c1ccc(NC(=O)Cn2ncc3cnc(N4CCC5(CC5)C(F)(F)C4)nc32)cn1 [Example 829] | 54%
50 | O=C(Cn1ncc2ccc(C3=CCC(F)(F)CC3)nc21)Nc1ccn2ccnc2c1 [Example 867] | 65%
51 | N#Cc1ccc(NC(=O)Cn2ncc3cnc(N4CCC5(CC5)C(F)(F)C4)nc32)cn1 [Example 823] | 226%
52 | COc1ccc(NC(=O)Cn2ncc3cnc(N4CCC5(CC5)C(F)(F)C4)nc32)cn1 [Example 825] | 30%
53 | O=C(Cn1ncc2ccc(N3CCC4(CC4)C(F)(F)C3)nc21)Nc1ccn2ncnc2c1 [Example 863] | 49%
